The values below are quoted from earlier work in PMC11996792, “First-in-human study of CPL’116 – a dual JAK/ROCK inhibitor – in healthy subjects” (Frontiers in Pharmacology, 2025).

Molecules are shown by their SMILES. Read-outs that look alike come from different tables or passages of the source.

Take `CCS(=O)(=O)N1CC(CC#N)(n2cc(-c3ncnc4[nH]ccc34)cn2)C1` [baricitinib]: the mean half-life is, setting by setting: (ref Shi et al., 2014) 8.5 h; (ref Zhao et al., 2020) 5.8 to 7.4 h.

As to `CC(C)NC(=O)COc1cccc(-c2nc(Nc3ccc4[nH]ncc4c3)c3ccccc3n2)c1` [belumosudil], the mean half-life (ref Schueller et al., 2024) is 7.5 to 10.9 h.

Regarding `O=S(=O)(c1cccc2c(O)nccc12)N1CCCNCC1` [hydroxyfasudil], where the note is “ref Wolff et al., 2024”, the mean half-life was 5.5 to 5.7 h. In the case of `C[C@@H]1CCN(C(=O)CC#N)C[C@@H]1N(C)c1ncnc2[nH]ccc12` [tofacitinib], the mean half-life by setting is: (extended-release formulation, ref Lamba et al., 2016) 5.9 h; (immediate formulation, ref Lamba et al., 2016) 3.2 h. As for `CC[C@@H]1CN(C(=O)NCC(F)(F)F)C[C@@H]1c1cnc2cnc3[nH]ccc3n12` [upadacitinib], the mean half-life (ref Mohamed et al., 2016) is 5.9 to 14.5 h.
